Test [1] concerns Aspergillus niger. Description: In vitro antifungal activity at a minimum inhibitory concentration (~100 ug/mL) against Aspergillus niger; Not affected. In kind it is functional. As to conditions: Aspergillus niger; read-out: MIC.
For test [2], the system named is Candida albicans. As to the kind of experiment: In vitro antifungal activity against Candida albicans (CA 10231). Type of test: functional.
In test [3] the test system is Pichia kudriavzevii. As to the kind of experiment: In vitro antifungal activity against Candida krusei (CK 28838). Type of test: functional.
Test [4] deals with Candida albicans. Description: In vitro antifungal activity against Candida albicans (CA 38247); Weak. In kind it is functional, organism-based.
In test [5] the test system is Candida albicans. Description: In vitro antifungal activity against Candida albicans (CA 442); Weak. In kind it is functional, organism-based.
The test system of test [6] is Candida albicans. Description: In vitro for antifungal activity against Candida albicans (CA 579a). In kind it is functional.
In test [7] the test system is Candida albicans. As to the kind of experiment: In vitro antifungal activity against Candida albicans (CA 62376); Weak. Type of test: functional, organism-based.
For test [8], the system named is Candida albicans. As to the kind of experiment: In vitro antifungal activity against […] (CA 34140); Not affected. In kind it is functional.
For test [9], the system named is Candida tropicalis. As to the kind of experiment: In vitro antifungal activity against Candida tropicalis (CT 750). Type of test: functional.
The species named for test [10] is Homo sapiens. As to the kind of experiment: Inhibitory activity against human concanavalin-A proliferation assay. In kind it is functional.
Test [11] has as its system Nakaseomyces glabratus. As to the kind of experiment: In vitro antifungal activity against Torulopsis glabrata (TG 15545). Type of test: functional.

Structures are written as SMILES. pIC50: −log10 of the molar value. In brackets after ≈: the same amount, converted by molar mass. A value given as a limit tells only on which side of the number the result lay.

Regarding `COC(=O)N(O)[C@H]1C[C@@H]2CC[C@@H](C)[C@@](O)(O2)C(=O)C(=O)N2CCCC[C@H]2C(=O)O[C@H]([C@H](C)C[C@@H]2CC[C@@H](O)[C@H](OC)C2)CC(=O)[C@H](C)/C=C(\C)[C@@H](O)[C@@H](OC)C(=O)[C@H](C)C[C@H](C)/C=C/C=C/C=C/1C`, the MIC was roughly 100 µg/mL (≈ 103 µM) in test [1]; 25 µg/mL (≈ 25.7 µM) in test [2]; 1.56 µg/mL (≈ 1.6 µM) in test [3]; “Weak” in test [4]; “Weak” in test [5]; 50 µg/mL (≈ 51.4 µM) in test [6]. Moreover, the MIC entry in test [7] was “Weak”; in [8], roughly 100 µg/mL (≈ 103 µM); in test [9] it was 25 µg/mL (≈ 25.7 µM); in test [11] it was 1.56 µg/mL (≈ 1.6 µM). In test [10], this compound showed a negative logarithm of the IC50 (pIC50) of 8.83.
With `CO[C@@H]1C[C@H](C[C@@H](C)[C@@H]2CC(=O)[C@H](C)/C=C(\C)[C@@H](O)[C@@H](OC)C(=O)[C@H](C)C[C@H](C)/C=C/C=C/C=C(\C)[C@@H](N(OC)C(=O)N(C)C)C[C@@H]3CC[C@@H](C)[C@@](O)(O3)C(=O)C(=O)N3CCCC[C@H]3C(=O)O2)CC[C@H]1O`, the minimal inhibitory concentration (MIC) was roughly 100 µg/mL (≈ 100 µM) in test [1]; greater than 100 µg/mL in test [2]; 3.12 µg/mL (≈ 3.12 µM) in [3]; “Weak” in [4]; “Weak” in [5]; greater than 100 µg/mL in test [6]. In addition, the MIC entry in [7] was “Weak”; in [8], roughly 100 µg/mL (≈ 100 µM); in [9], 50 µg/mL (≈ 50 µM); in test [11], 3.12 µg/mL (≈ 3.12 µM). This compound gave a negative-log IC50 (pIC50) in [10] of 5.44.
Take `CO[C@@H]1C[C@H](C[C@@H](C)[C@@H]2CC(=O)[C@H](C)/C=C(\C)[C@@H](O)[C@@H](OC)C(=O)[C@H](C)C[C@H](C)/C=C/C=C/C=C(\C)[C@@H](N(O)C(=O)OC(C)C)C[C@@H]3CC[C@@H](C)[C@@](O)(O3)C(=O)C(=O)N3CCCC[C@H]3C(=O)O2)CC[C@H]1O`: the MIC in test [1] was roughly 100 µg/mL (≈ 99.9 µM); in test [2] it was 6.25 µg/mL (≈ 6.24 µM); in test [3], 0.78 µg/mL (≈ 0.779 µM); in test [4] it was “Weak”; in test [5], “Weak”; in test [6] it was 12.5 µg/mL (≈ 12.5 µM). Further, the MIC result in test [7] is “Weak”; in [8], roughly 100 µg/mL (≈ 99.9 µM); in test [9], 25 µg/mL (≈ 25 µM); in [11] it was 0.78 µg/mL (≈ 0.779 µM). Moreover, the negative logarithm of the IC50 (pIC50) in [10] was 6.09.
For the compound `COC(=O)N(O)[C@@H]1C[C@@H]2CC[C@@H](C)[C@@](O)(O2)C(=O)C(=O)N2CCCC[C@H]2C(=O)O[C@H]([C@H](C)C[C@@H]2CC[C@@H](O)[C@H](OC)C2)CC(=O)[C@H](C)/C=C(\C)[C@@H](O)[C@@H](OC)C(=O)[C@H](C)C[C@H](C)/C=C/C=C/C=C/1C`, the minimum inhibitory concentration (MIC) is roughly 100 µg/mL (≈ 103 µM) in [1]; 3.12 µg/mL (≈ 3.21 µM) in [2]; 0.39 µg/mL (≈ 0.401 µM) in test [3]; “Weak” in [4]; “Weak” in test [5]; 6.25 µg/mL (≈ 6.42 µM) in test [6]. In addition, the minimum inhibitory concentration (MIC) result in test [7] was “Weak”; in test [8], roughly 100 µg/mL (≈ 103 µM); in test [9], 3.12 µg/mL (≈ 3.21 µM); in test [11], 0.78 µg/mL (≈ 0.801 µM). The negative logarithm of the IC50 (pIC50) in test [10] is 7.80.
On to `CCCOC(=O)N(O)[C@H]1C[C@@H]2CC[C@@H](C)[C@@](O)(O2)C(=O)C(=O)N2CCCC[C@H]2C(=O)O[C@H]([C@H](C)C[C@@H]2CC[C@@H](O)[C@H](OC)C2)CC(=O)[C@H](C)/C=C(\C)[C@@H](O)[C@@H](OC)C(=O)[C@H](C)C[C@H](C)/C=C/C=C/C=C/1C`, for which the MIC in test [1] was roughly 100 µg/mL (≈ 99.9 µM); in [2], 12.5 µg/mL (≈ 12.5 µM); in [3], 0.78 µg/mL (≈ 0.779 µM); in test [4], “Weak”; in [5] it was “Weak”; in test [6] it was 12.5 µg/mL (≈ 12.5 µM). Further, the MIC entry in [7] was “Weak”; in [8], roughly 100 µg/mL (≈ 99.9 µM); in test [9], 6.25 µg/mL (≈ 6.24 µM); in test [11], 1.56 µg/mL (≈ 1.56 µM). In addition, the pIC50 in test [10] was 6.05.
In the case of `CO[C@@H]1C[C@H](C[C@@H](C)[C@@H]2CC(=O)[C@H](C)/C=C(\C)[C@@H](O)[C@@H](OC)C(=O)[C@H](C)C[C@H](C)/C=C/C=C/C=C(\C)[C@@H](N(O)C(=O)N3CCOCC3)C[C@@H]3CC[C@@H](C)[C@@](O)(O3)C(=O)C(=O)N3CCCC[C@H]3C(=O)O2)CC[C@H]1O`, the MIC is roughly 100 µg/mL (≈ 97.2 µM) in test [1]; 25 µg/mL (≈ 24.3 µM) in [2]; 6.25 µg/mL (≈ 6.08 µM) in [3]; “Weak” in test [4]; “Weak” in test [5]; 50 µg/mL (≈ 48.6 µM) in test [6]. Also, the minimal inhibitory concentration (MIC) entry was “Weak” in [7], roughly 100 µg/mL (≈ 97.2 µM) in [8], 25 µg/mL (≈ 24.3 µM) in [9] and 3.12 µg/mL (≈ 3.03 µM) in test [11]. This compound also showed a negative logarithm of the IC50 (pIC50) in test [10] of 5.79.
`CO[C@@H]1C[C@H](C[C@@H](C)[C@@H]2CC(=O)[C@H](C)/C=C(\C)[C@@H](O)[C@@H](OC)C(=O)[C@H](C)C[C@H](C)/C=C/C=C/C=C(\C)[C@H](N(O)C(=O)N3CCCCC3)C[C@@H]3CC[C@@H](C)[C@@](O)(O3)C(=O)C(=O)N3CCCC[C@H]3C(=O)O2)CC[C@H]1O`: the MIC in [1] was roughly 100 µg/mL (≈ 97.4 µM); in [2], 1.56 µg/mL (≈ 1.52 µM); in test [3], 1.56 µg/mL (≈ 1.52 µM); in test [4] it was “Weak”; in test [5] it was “Weak”; in test [6], 1.56 µg/mL (≈ 1.52 µM). Moreover, the minimal inhibitory concentration (MIC) entry in [7] is “Weak”; in [8] it was roughly 100 µg/mL (≈ 97.4 µM); in test [9], 6.25 µg/mL (≈ 6.09 µM); in test [11], 1.56 µg/mL (≈ 1.52 µM). This compound showed a negative-log IC50 (pIC50) in test [10] of 6.10.
On to `CCCOC(=O)N(O)[C@@H]1C[C@@H]2CC[C@@H](C)[C@@](O)(O2)C(=O)C(=O)N2CCCC[C@H]2C(=O)O[C@H]([C@H](C)C[C@@H]2CC[C@@H](O)[C@H](OC)C2)CC(=O)[C@H](C)/C=C(\C)[C@@H](O)[C@@H](OC)C(=O)[C@H](C)C[C@H](C)/C=C/C=C/C=C/1C`, for which the MIC was roughly 100 µg/mL (≈ 99.9 µM) in test [1]; 1.56 µg/mL (≈ 1.56 µM) in test [2]; 0.78 µg/mL (≈ 0.779 µM) in test [3]; “Weak” in [4]; “Weak” in test [5]; 3.12 µg/mL (≈ 3.12 µM) in [6]. In addition, the MIC result in [7] is “Weak”; in test [8] it was roughly 100 µg/mL (≈ 99.9 µM); in [9], 1.56 µg/mL (≈ 1.56 µM); in [11], 1.56 µg/mL (≈ 1.56 µM). Besides, the negative-log IC50 (pIC50) in [10] was 6.54.
As to `CCCCOC(=O)N(O)[C@@H]1C[C@@H]2CC[C@@H](C)[C@@](O)(O2)C(=O)C(=O)N2CCCC[C@H]2C(=O)O[C@H]([C@H](C)C[C@@H]2CC[C@@H](O)[C@H](OC)C2)CC(=O)[C@H](C)/C=C(\C)[C@@H](O)[C@@H](OC)C(=O)[C@H](C)C[C@H](C)/C=C/C=C/C=C/1C`, the MIC in [1] is roughly 100 µg/mL (≈ 98.5 µM); in [2], 1.56 µg/mL (≈ 1.54 µM); in test [3], 0.78 µg/mL (≈ 0.768 µM); in test [4] it was “Weak”; in test [5] it was “Weak”; in test [6] it was 1.56 µg/mL (≈ 1.54 µM). Moreover, the MIC entry in test [7] was “Weak”; in [8], roughly 100 µg/mL (≈ 98.5 µM); in [9], 1.56 µg/mL (≈ 1.54 µM); in test [11], 0.78 µg/mL (≈ 0.768 µM). Moreover, in [10], the pIC50 is 7.08.

One may read the MIC as the lowest concentration that inhibits growth of the organism. By pIC50 is commonly meant the negative decadic logarithm of the IC50, by convention in mol/L. A high value points to a low IC50.

Values taken from ChEMBL document CHEMBL1133206, “Antifungal rapamycin analogues with reduced immunosuppressive activity” (Bioorg Med Chem Lett, 2000).
